# Measurements from patent EP2767543B1, “SALTS OF CARBAMOYL PHOSPHONIC ACID ESTERS WHICH ACT AS SELECTIVE INHIBITORS OF HUMAN IMMUNODEFICIENCY VIRUS HIV-1 PRODUCTION” (Aktsionernoe Obshcestvo "Proizvodstvenno-Kommercheskaya …, priority 2011, dated 2013).
# Experiments:
# [1] = Stability analysis of 1% water solutions at room temperature; format: physicochemical; details: within a month
# Description: The stability analysis for the obtained compounds in the form of 1% water solutions at room temperature was carried out. The acid form of the carbamoyl phosphonate and ammonia salt degrade by 40% and 2%, respectively, within a month; no destruction products were detected for the rest of salts within a month.
# MT-4 cells = test: Cytotoxicity assessment in MT-4 cells (MTT / formazan method, 4 days); format: cell-based; details: concentration that reduces MT-4 cell vitality by 50%, day 4, MTT
# Description: Cytotoxicity of a drug is estimated by adding its delution in RPMI-1640 serum-free medium to MT-4 cell suspension placed in cavities of the 96-cavity board (Cel-Cult, England), up to the ultimate concentrations of 0.001-100 µg/ml (three cavities per dose), with subsequent cultivation at 37°C within 4 days. The inoculation concentration is 0.5x10^6 cell particles in 1 mm. The cells, to which the drug was not added and was substituted with the same quantity of the serum-free medium, serve as the reference. The cell vitality is counted on Day 4 of cultivation, using the formazan method (intravital staining of MTT cells). Toxicity of different drug doses is determined by the cell vitality as compared with the reference cells; the dose-dependent curve is built using obtained data, and the concentration that reduces cell vitality by 50% (CD50) is determined. […] It is also noteworthy that 50% toxic doses exceed HIV-1 effective doses by a factor of 2-4 (see Table 1) .
# HIV-1, GVK4046 = test: HIV-1 reproduction inhibition in MT-4 cell culture (p24 ELISA and MTT cell vitality, day 4); format: cell-based; details: HIV-1, GVK4046 in MT-4 cell culture, 4 days; read-out: ID50 (the source's name)
# Description: The HIV inhibition study includes cultivation of primary infective MT-4 line lymphoid cells over the studied compounds, the ultimate concentrations of which in the culture medium range from 0.001 µg/ml to 100 µg/ml, during one passage, within 4 days.
# HIV reproduction inhibition in the sensitive cell culture is determined by the reduction in p24 virus-specific protein accumulation (according to the enzyme-linked immunosorbent assay) and by the increase in cell vitality over the drug as compared with the reference cells, on Day 4 of the cultivation, using 3-(4.5-dimethylthiazole-2-yl-)-2,5-diphenyl tetrazolium (MTT) bromide staining.
# The impact of the studied compounds on HIV-1 reproduction in MT-4 cell culture is studied using a well-known technique.
smiles,measurement,setting,value
"Cc1cn([C@H]2C[C@H](N=[N+]=[N-])[C@@H](COP(=O)(O)C(N)=O)O2)c(=O)[nH]c1=O [Acid form (reference), [(2S,3S,5R)-3-azido-5-(5-methyl-2,4-deoxythymidine-1-yl)oxolan-2-yl]methyl ester of carbamoyl phosphonic acid, reference compound]",degrade,[1],40%
same,CD50,MT-4 cells,2.6 µM
same,IC50,"HIV-1, GVK4046",800 nM
